In patent publication US10912767B2, “Anthracycline prodrugs and methods of making and using the same” (THE REGENTS OF THE UNIVERSITY OF COLORADO, priority 2015, dated 2021):
Like-named read-outs stand apart in the source and are kept apart here.

Legend:
[1] = test system: MDA-MB-231 breast cancer cells; experiment: Tumor cell growth inhibition, crystal violet (Example 2); type: cell-based, human; settings: Homo sapiens
Excerpt: (§1) In order to investigate the photolysis of the drugs in a system amenable to cell culture use, a custom UV irradiation apparatus was constructed, consisting of 3 small blacklight fluorescent bulbs (Southern New England Ultraviolet Co., λmax=350 nm) set between two ring stands and suspended at a height of 11.5 cm. The bulbs' housing was reflective aluminum so as to direct as much UV irradiation as possible downward toward the plate. Upon installation in sterile cell culture hood, the power of the system was measured at approximately 6-7 mW using a Scientech laser power meter. Prior to experimentation, the hood and irradiation apparatus was sterilized with 254 nm germicidal UV irradiation overnight. Using this setup, 100 μM of 4,5-dimethoxy-2-nitrobenyl alcohol (DMNA), photodoxazolidine R═H, and glucose-PEG-photodoxazoldine were irradiated in individual wells of a 24-well plate. Initially, 50 μL of a DMSO stock was diluted with 950 μL of PBS and aliquots of 50 μL were removed at various times (0-180 min), mixing by pipetting each time. The timepoints were analyzed by HPLC (method 2) and plotted as fractional conversion versus time. […] Therefore, a second experiment was performed in which the PBS was replaced with 1:1 acetonitrile:water. With this system of 5% DMSO/47.5% acetonitrile/47.5% water, no visible precipitation was produced over the course of the reaction.
(§2) The ovarian carcinoma line NCl/ADR-RES (ADR) was grown in high-glucose Dulbecco's Modified Eagle Medium (DMEM) supplemented with 10% fetal bovine serum (FBS), 200 units/mL of penicillin and 200 μg/mL of streptomycin. The breast carcinoma line MDA-MB-231 was cultured in low-glucose DMEM with the same additives. Both lines were maintained in a humidified incubator with 5% CO2/95% air at 37° C. UV irradiations were performed with the apparatus described above.
(§3) Growth inhibition experiments were performed by seeding cells into 96-well plates or 24-well plates at densities of 1000-1500 cells per well or 8000 cells per well, respectively, and allowing the cells to adhere overnight. The media was then replaced with a range of aqueous concentrations of the drug in question and allowed to incubate at 37° C. with the cells for a span of time (Inc1) which ranged from 1 min to 48 hours. Irradiation was performed at room temperature with the plate's lid removed and ranged from 1 to 30 min. In some experiments, the drug solution was removed following Inc1 and irradiated in clean media or PBS. Following irradiation, the cells were placed back into the 37° C. incubator for a second period of incubation (Inc2), which varied between 1 min and 24 h, prior to replacement with fresh media. Plates which received no irradiation but identical treatment otherwise were done in parallel. The cells were then grown until the no-drug control wells reached approximately 80% confluence or 5 days, whichever was shorter. […] The cells were fixed with 5% formalin in PBS, stained with crystal violet, washed with tap water, and air-dried. The stain was resolubilized in 50% isopropyl alcohol, 50% H2O containing 2% (w/v) SDS. The staining density was read on a multiwell plate reader at 588-600 nm. Percentage cell density was calculated relative to the irradiated no-drug control wells, plotted as a function of drug concentration, and fit using non-linear least squared analysis with a variable-slope dose response model in GraphPad Prism 5.0 software.
(§4) Although the introduction of a long-pass glass filter between the light source and the plate alleviated this effect to a small extent, a maximum irradiation time of 10 min was settled upon. […] Since a media change at that point would remove the cells as well, the re-adherence of the cell population was accomplished by the addition of a large volume (200 μL) of complete media following Inc2, and overnight incubation. Then, a full media change was done to remove the drug. […]

[2] = test system: NCI/ADR-RES multi-drug resistant ovarian cancer cell line; experiment: as above; type: cell-based; settings: Homo sapiens
Excerpt: as §1, §2, §3, §4

[3] = In vivo body weight change as indication of toxicity; set-up: species or system nude mice; settings: 4 mg/kg dox equivalent iv weekly x6; photodoxazolidine with 18-FDG ip
Experimental: For reconstitution for intravenous injection into mice, dry photodoxazolidine R═H (23 mg) was dissolved in 785 μL of DMSO for a final concentration of 34.5 mM, labeled “Drug Stock,” and stored dark at −20° C. Shortly before injection, the Drug Stock was thawed and 20-50 μL was transferred to a new tube. To this tube, 6 volumes (relative to the Drug Stock volume) of PEG-400 and 4 volumes of propylene glycol (PG) were added and the solution thoroughly mixed by vortexing. Immediately prior to injection, 9 volumes of saline (0.9% NaCl) was added to the DMSO/PEG/PG solution of photodoxazolidine and mixed by vortexing. […] Therefore, this formulation was used as prepared. This protocol produces a final formulation of 5% DMSO, 30% PEG-400, 20% PG, 45% saline. A standard injection of 100 μL of this formulation delivers 4 mg dox equivalent/kg body weight for a mouse weighing 0.025 kg.
Luciferase-positive MDA-MB-231 cells were maintained in MEM culture medium supplemented with 10% heat inactivated fetal bovine serum and 2% penicillin/streptomycin. Prior to injection, typsinized cell populations were counted with a Z1 Coulter Particle counter, centrifuged, and resuspended in Hank's Balanced Salt Solution (HBSS) at a concentration of 4.0×10^7 cells/mL. […] Body weight and tumor growth were measured regularly. Tumor growth was measured optically from the bioluminescence signal from injection of luciferin. […]

[4] = 37° C., pH 7.4; cited from earlier work
[5] = Quantum yield of photocleavage, He-Cd laser 325 nm, HPLC; type: physicochemical
Experimental: Initially, measurement of the quantum yield of photodoxazolidine R═H was done in a fully-absorbing solution of photoactive drug in a solution of 90% dimethylacetamide (DMA), 10% water in a 1×1 cm quartz cuvette equipped with a small magnetic stir bar. A stock of photodoxazolidine in DMA was diluted in 9:1 DMA:H2O to a final concentration of 373 μM in a final volume of 3.380 mL. […] The cuvette was placed into the path of an Omnichrome He-Cd laser (single-window power: 10.75 mW at 325 nm using a Scientech laser power meter). The solution was mixed by the stir bar, which was agitated with a magnetic stir plate placed vertically next to the cuvette. Aliquots of 20 μL were removed at times between 0 and 62 min of irradiation and those aliquots were analyzed by HPLC (method 2) for the ratio of dox to photodoxazolidine. The quantum yield was calculated from the ratio of molecules of doxorubicin (dox) formed to photons absorbed.
To allow for better comparison between the quantum yield of photocleavage of photodoxazolidine with the quantum yield for azido-PEG-photodoxazolidine, the measurement was retaken with 50% acetonitrile in water as a solvent. […] Photodoxazolidine (in DMF) was diluted with 30 mL of 50% acetonitrile to a final concentration of 104 μM. The solution was confirmed to be fully absorbing by monitoring the laser power exiting the cell throughout the course of the experiment, which never deviated from 0 mW. As above, the contents of the cell were mixed with a small magnetic stir bar. Aliquots of 50 μL were removed at various times and analyzed as described above. The calculated quantum yield in this solvent system was identical to that measured from the […] system used above.
Concentration of azido-PEG-photodoxazolidine was determined via absorbance (λ=480 nm, ε=11500 M^−1 cm^−1). A sample ([…]) was dissolved in 1 mL of ACN and transferred to a cuvette. A 12.4 mW Omnichrome HeCd was used to irradiate the solution for 30 min at 325 nm. Aliquots of 10 μL were collected at different times and analyzed by HPLC to determine the % Dox in relation to that of azido-PEG-photodoxazolidine. In calculating quantum yield: power (without cuvette)=12.4 mW, (with cuvette)=10.7 mW, incident light=11.55 mW; energy=0.462 J, 7.55×1017 photons; t=40 sec when % Dox=9.2. Experiments were performed in triplicate.
Azido-PEG-photodoxazolidine was irradiated with a 12.4 mW monochromatic laser at 325 nm for 30 min. Aliquots were collected throughout to determine the amount of azido-PEG-photodoxazolidine in relation to released doxorubicin, which was quantified by HPLC. […] The average of triplicate quantum yield experiments was 0.025. This value is in the low end of the quantum yield range, yet is beneficial because it signifies that UV must be applied for longer durations prior to release of the cytotoxic agent. This makes administration of this photo-activated prodrug safer, and its synthesis more practical.

[6] = test system: MDA-MB-231 breast carcinoma cells; experiment: Tumor cell uptake by flow cytometry; type: cell-based, human; settings: 500 nM, 30 min to 4 h, compared against doxorubicin
Experimental: Uptake of the drugs by the cells was measured by flow cytometry. The cells were incubated with 500 nM photodoxazolidine R═H, azido-PEG-photodoxazolidine, or doxorubicin dissolved in 1:1 PBS:serum-free media for between 30 min and 4 h, after which the drug was removed and the cells washed with cold PBS. Cells were trypsinized to a single-cell suspension, rinsed again in cold PBS, and stored on ice for analysis by flow cytometry, monitoring the presence of the anthraquinone fluorophore (channel FL2). Cell populations were gated for intact cells in the side-scatter/forward-scatter plot and 10,000 gated events were scored for each timepoint. The mean fluorescence of the population was compared to the mean fluorescence of 10,000 gated events for an untreated population and the fold increase over background was plotted versus time of drug incubation.
Using MDA-MB-231 breast carcinoma cells, the cellular uptake of photodoxazolidine and azido-PEG-photodoxazolidine was analyzed by flow cytometry and compared against the uptake of doxorubicin.

[7] = test system: cancer cells; settings: cited from earlier work

COc1cccc2c1C(=O)c1c(O)c3c(c(O)c1C2=O)C[C@@](O)(C(=O)CO)C[C@@H]3O[C@H]1C[C@H](N)[C@H](O)[C@H](C)O1 [Dox, doxorubicin, reference compound]
IC50 ([1]; MDA-MB-231, 3 h treatment, read-out: IC50): 360 ± 30 nM
IC50 ([2]; 3 h treatment, read-out: IC50): 10000 nM
body weight change [3]: significant weight loss

COc1cccc2c1C(=O)c1c(O)c3c(c(O)c1C2=O)C[C@@](O)(C(=O)CO)C[C@@H]3O[C@H]1C[C@@H]2NCO[C@@H]2[C@H](C)O1 [Doxaz, doxazolidine, reference compound]
IC50 ([1]; MDA-MB-231, 3 h): 5 to 10 nM
half-life [4]: 3 min
IC50 ([2]; 3 h): 3 ± 0.2 nM

COc1cc(C(C)OC(=O)N2CO[C@@H]3[C@H](C)O[C@@H](O[C@H]4C[C@](O)(C(=O)CO)Cc5c(O)c6c(c(O)c54)C(=O)c4c(OC)cccc4C6=O)C[C@@H]32)c([N+](=O)[O-])cc1OCC(=O)NCCOCCOCCOCCN=[N+]=[N-] (mixture of isomers) [Azido-PEG-photodoxazolidine]
quantum yield, fold larger than photodoxazolidine [5]: 5-10 fold
doxorubicin released ([5]; 40 sec irradiation, 12.4 mW laser at 325 nm): 9.2%
quantum yield ([5]; ACN, 325 nm, average of triplicate): 0.025
quantum yield ([5]; stated as suspected): 0.01-0.02
cellular uptake (cellular fluorescence) [6]: only marginally improved uptake over doxorubicin
IC50 ([2]; 10 min): 81 ± 7 nM

COc1cccc2c1C(=O)c1c(O)c3c(c(O)c1C2=O)C[C@@](O)(C(=O)CO)C[C@@H]3OC1CC2C(OCN2CN2COC3C(C)OC(O[C@H]4C[C@](O)(C(=O)CO)Cc5c(O)c6c(c(O)c54)C(=O)c4c(OC)cccc4C6=O)CC32)C(C)O1 (stereo partly shown) [DoxF]
anti-tumor activity, fold above doxorubicin [7]: approximately 100 fold
